Assay results published in patent US10744181B2, “Glycopeptide derivatives for use in the treatment and/or prevention and/or attenuation of fibrosis diseases” (TFCHEM, priority 2017, dated 2020).
Marks after values point to notes of the source that are not given here.

What was measured:
Type in all cases: cell-based, human
Collagen I = Collagen I synthesis (ELISA) in normal fibroblasts; details: normal fibroblasts (NF), compound at 9.4 mM, 48 hours; pg collagen I per mg proteins
Description: (§1) Primary cultures of keloid fibroblasts (KF) and normal fibroblasts (NF) were obtained from operative wastes (keloid and abdominoplasty). After thawing, cells were grown in Dulbecco's modified Eagle's medium (DMEM) supplemented with 10% of fetal calf serum, 40 mg/l of gentamicin and 2 mg/l of fungizone (DMEMc), in an incubator at 37° C., 5% CO2. Culture medium was changed twice a week and cells were subcultured by trypsinization when confluence was reached. Cells were used under 10 passages.
(§2) Compound 1 was directly diluted in culture medium at 5 mg/ml.
(§3) Fibroblasts were seeded in 6 wells culture plate at the concentration of 0.08·10^6 cells/well (n=6). […]
(§4) The synthetized collagen quantity is expressed as the ratio of quantity of collagen vs quantity of total proteins in the sample.
(§5) The quantity of total protein was determined using a biochemical test, the bicinchoninic acid assay (BCA assay). […] Absorbance is read immediately at 550 nm (Spectrophotometer Multiscan Ex, Thermo). The standard curve is drawn and the sample protein concentration is determined with this curve. […]
(§6) Collagen I synthesis was evaluated by Enzyme-linked immunosorbent assay with an ELISA kit (USCN SEA571Hu, Euromedex). […] The enzyme-substrate reaction is terminated by the addition of sulfuric acid solution and the color change is measured spectrophotometrically at 450 nm. […]
(§7) Data are expressed as mean+/−sem. […]

Collagen III = Collagen III synthesis (ELISA) in normal fibroblasts; details: normal fibroblasts (NF), compound at 9.4 mM, 48 hours; ng collagen III per mg proteins
Description: as §1, §2, §3, §4, §5
Collagen III synthesis is performed by Enzyme-linked immunosorbent assay with an ELISA kit (USCN SEA576Hu, Euromedex). […] The enzyme-substrate reaction is terminated by the addition of sulfuric acid solution and the color change is measured spectrophotometrically at 450 nm. […]
as §7

[1] = test system: collagen I/collagen III ratio; test: Collagen I/collagen III ratio in normal fibroblasts; details: normal fibroblasts (NF), compound at 9.4 mM
Description: as §1, §2
Fibroblasts were seeded in 6 wells culture plate at the concentration of 0.08·10^6 cells/well (n=6). After 48 hours of culture, wells were washed with 3 ml of PBS. 2 ml of each solution of tested compound were added per wells. […]
as §4
as §6, with “nm. The concentration of collagen I in the samples is then determined by comparing the optical density of the samples to the standard curve. The results were expressed as pg of collagen I by mg of proteins.” for “nm.”

C[C@H](NC(=O)[C@H](C)NC(=O)[C@@H](N)CCCCNCC(F)(F)[C@]1(O)O[C@H](CO)[C@H](O)[C@H](O)[C@H]1O)C(=O)O [Compound 1]
Protein Collagen I, Mean (Collagen I): 28.85*** pg/mg | Protein Collagen III, Mean (Collagen III): 6.57*** ng/mg | Ratio collagen I/collagen III [1]: 4.39.10^−3
